Results: US9371265B2, “Compositions and methods related to inhibitors of JAK kinase” (EP PHARMA, INC., priority 2012, dated 2016)

Tests used:
VEGFR2 = VEGFR2 (Homo sapiens, UniProt P35968); assay: Kinase panel: VEGFR2; assay type: biochemical; details: 10 μM EP009
Experimental: (§1) Achieving JAK3 selectivity remains a significant challenge in the development of new small molecules for the treatment of cancer and immune-derived diseases. As such, the inventors employed cell-based screening assays of small-molecule libraries based upon the chemical scaffold of the established JAK3 inhibitor NC1153 (Stepkowski et al., J Immunol. (2005), 175(7):4236-4246) EP009 (FIG. 2A) was selected as a lead compound due to improved intrinsic stability (>95% purity in various solvents at 37° C. for 24 hours; FIG. 3) and high-degree of JAK3 selectivity. To test JAK3 versus JAK2 specificity of EP009, the IL-2/JAK3-dependent Kit225, and IL-3/JAK2-dependent BaF/3 cell lines were used. Kit225 and BaF/3 cells growing in the presence of IL-2 or IL-3, respectively, were treated with ascending concentrations of EP009 for 12 hours and cellular JAK3 and JAK2 tyrosine phosphorylation levels detected by Western blot analysis (FIGS. 2B and 2C). Following densitometric analysis, EP009 was determined to dose-dependently reduce IL-2-mediated JAK3 tyrosine phosphorylation with a cellular 50% inhibitory concentration (IC50) between 10 and 20 μM (FIG. 2B). […] To globally evaluate specificity, the inhibitory activity of EP009 was measured against a panel of protein kinases distributed throughout the kinome using the scanEDGE profiling service (KINOMEscan). […]

TGFBR1 = TGFBR1 (Homo sapiens, UniProt P36897); assay: Kinase panel: TGFBR1; assay type: biochemical; details: 10 μM EP009
Experimental: as §1

normal human naïve PBMCs = assay: Naive PBMC viability (MTS); assay type: cell-based; details: 72 hours, concentrations giving complete loss of JAK3-dependent cell viability (0-10 μM)
Experimental: FIGS. 2A-2F. Selective inhibition of JAK3 by EP009 results in loss of JAK3-dependent tumor cell line viability with no detectable off-target effects in key cell types. (A) Chemical structure of EP009 (M.W. 224.34). (B) Kit225 or (C) BaF/3 cells cultured in the presence of IL-2 or IL-3, respectively, were treated with vehicle (PBS; lane a) or increasing amounts of EP009 (0-50 μM; lanes b-h) for 12 hours. Cells were then lysed, clarified, and immunoprecipitated (IP) with anti-JAK3 (α-JAK3) or anti-JAK2 (α-JAK2), and subjected to Western blot (WB) analysis with anti-phosphotyrosine (α-pY). Blots were stripped and reprobed with corresponding antibody to verify equivalent protein loading. […] (E) Kit225 or BaF/3 cells were cultured with increasing amounts of EP009 (0-10 μM) for 72 hours and cell viability measured with the MTS tetrazolium salt assay. Values represent mean absorbance (OD490-OD650 nm) normalized to vehicle (PBS) treated control cells, while error bars represent the standard deviation (n=3). (F) HEK293, HEPG2, or naïve primary human PBMCs were cultured with increasing amounts of EP009 (0-10 μM) for 72 hours and cell viability measured with the MTS tetrazolium salt assay. Values represent mean absorbance (OD490-OD650 nm) normalized to vehicle (PBS) treated control cells, while error bars represent the standard deviation (n=3). […]

ABL1-phosphorylated = ABL1-phosphorylated (Homo sapiens, UniProt P00519); assay: Kinase panel: ABL1-phosphorylated; assay type: biochemical; details: 10 μM EP009
Experimental: as §1

ABL1-phosphorylated, sequence (P00519 whole entry): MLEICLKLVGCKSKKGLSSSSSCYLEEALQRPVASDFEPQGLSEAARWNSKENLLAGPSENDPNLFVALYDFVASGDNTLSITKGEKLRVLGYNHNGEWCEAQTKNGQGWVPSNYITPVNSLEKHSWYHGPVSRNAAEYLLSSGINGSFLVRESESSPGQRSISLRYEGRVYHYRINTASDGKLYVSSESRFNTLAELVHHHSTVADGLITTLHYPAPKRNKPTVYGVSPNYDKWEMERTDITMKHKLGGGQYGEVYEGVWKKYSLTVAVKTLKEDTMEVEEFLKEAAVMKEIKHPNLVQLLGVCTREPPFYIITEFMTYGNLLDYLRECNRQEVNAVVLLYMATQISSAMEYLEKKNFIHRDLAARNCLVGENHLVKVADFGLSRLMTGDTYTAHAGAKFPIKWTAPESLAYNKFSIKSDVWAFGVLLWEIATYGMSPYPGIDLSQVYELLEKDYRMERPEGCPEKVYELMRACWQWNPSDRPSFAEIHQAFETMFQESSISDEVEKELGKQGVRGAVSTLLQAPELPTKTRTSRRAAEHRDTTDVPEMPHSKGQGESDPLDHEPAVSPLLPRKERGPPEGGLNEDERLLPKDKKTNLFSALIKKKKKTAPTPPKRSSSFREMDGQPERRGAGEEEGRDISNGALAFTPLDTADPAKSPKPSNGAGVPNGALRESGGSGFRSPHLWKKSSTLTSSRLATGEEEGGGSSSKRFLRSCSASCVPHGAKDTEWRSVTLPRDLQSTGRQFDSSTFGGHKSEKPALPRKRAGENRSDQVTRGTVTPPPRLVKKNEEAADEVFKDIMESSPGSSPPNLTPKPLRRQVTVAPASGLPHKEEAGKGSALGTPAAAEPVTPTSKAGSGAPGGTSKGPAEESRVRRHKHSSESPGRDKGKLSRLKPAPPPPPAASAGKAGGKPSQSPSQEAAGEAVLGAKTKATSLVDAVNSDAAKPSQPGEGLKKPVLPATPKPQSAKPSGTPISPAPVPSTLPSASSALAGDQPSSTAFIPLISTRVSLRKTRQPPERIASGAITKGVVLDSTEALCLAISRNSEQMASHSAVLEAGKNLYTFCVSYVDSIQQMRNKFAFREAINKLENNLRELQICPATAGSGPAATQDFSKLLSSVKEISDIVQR
VEGFR2, sequence (P35968 20-1356): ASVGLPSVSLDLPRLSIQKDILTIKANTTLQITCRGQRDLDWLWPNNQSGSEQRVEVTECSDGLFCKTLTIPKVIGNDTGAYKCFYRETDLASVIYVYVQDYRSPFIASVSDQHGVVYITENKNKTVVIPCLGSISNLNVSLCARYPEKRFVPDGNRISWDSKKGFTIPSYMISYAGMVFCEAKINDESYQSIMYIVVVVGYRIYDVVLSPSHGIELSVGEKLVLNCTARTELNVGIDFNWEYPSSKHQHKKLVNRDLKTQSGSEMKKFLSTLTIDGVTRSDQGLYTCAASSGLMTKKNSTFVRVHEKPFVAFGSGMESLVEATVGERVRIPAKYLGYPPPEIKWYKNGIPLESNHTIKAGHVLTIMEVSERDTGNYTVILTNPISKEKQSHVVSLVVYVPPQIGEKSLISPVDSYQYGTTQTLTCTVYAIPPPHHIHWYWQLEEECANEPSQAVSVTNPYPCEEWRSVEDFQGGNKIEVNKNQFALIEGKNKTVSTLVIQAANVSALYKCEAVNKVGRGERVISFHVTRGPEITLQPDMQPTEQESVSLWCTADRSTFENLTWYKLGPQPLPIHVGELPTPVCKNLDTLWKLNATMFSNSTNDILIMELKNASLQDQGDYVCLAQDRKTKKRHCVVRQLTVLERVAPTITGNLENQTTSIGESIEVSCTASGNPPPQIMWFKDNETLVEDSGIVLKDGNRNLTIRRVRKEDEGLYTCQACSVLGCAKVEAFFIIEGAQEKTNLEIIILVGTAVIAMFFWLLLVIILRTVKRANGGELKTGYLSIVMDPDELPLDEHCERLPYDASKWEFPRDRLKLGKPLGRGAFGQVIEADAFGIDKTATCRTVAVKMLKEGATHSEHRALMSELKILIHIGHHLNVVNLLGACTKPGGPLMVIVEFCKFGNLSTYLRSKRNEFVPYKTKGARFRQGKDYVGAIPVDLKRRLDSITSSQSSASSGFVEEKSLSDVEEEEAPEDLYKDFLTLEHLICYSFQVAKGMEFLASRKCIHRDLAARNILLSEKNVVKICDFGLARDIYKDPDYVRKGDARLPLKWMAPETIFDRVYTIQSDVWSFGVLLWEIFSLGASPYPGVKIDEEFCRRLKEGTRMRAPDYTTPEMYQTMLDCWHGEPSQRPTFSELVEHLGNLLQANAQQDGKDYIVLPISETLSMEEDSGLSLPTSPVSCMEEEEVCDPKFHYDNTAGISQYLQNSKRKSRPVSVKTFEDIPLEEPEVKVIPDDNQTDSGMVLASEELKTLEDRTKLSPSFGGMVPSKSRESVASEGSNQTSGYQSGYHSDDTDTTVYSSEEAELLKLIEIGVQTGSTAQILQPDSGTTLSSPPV
TGFBR1, sequence (P36897 34-503): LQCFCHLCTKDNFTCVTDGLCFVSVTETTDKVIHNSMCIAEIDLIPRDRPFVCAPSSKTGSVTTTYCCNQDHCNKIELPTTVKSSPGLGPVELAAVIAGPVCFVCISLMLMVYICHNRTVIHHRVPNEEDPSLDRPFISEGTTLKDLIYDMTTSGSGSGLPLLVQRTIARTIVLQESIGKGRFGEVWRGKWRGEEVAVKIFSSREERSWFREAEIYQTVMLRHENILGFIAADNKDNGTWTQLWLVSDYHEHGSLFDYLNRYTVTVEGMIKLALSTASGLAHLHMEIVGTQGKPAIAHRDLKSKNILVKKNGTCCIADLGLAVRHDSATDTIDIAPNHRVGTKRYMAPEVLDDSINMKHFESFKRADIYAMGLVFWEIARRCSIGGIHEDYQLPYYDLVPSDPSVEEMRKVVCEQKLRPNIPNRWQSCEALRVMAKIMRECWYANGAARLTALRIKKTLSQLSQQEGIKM

SMILES: C=C1CCCCCCCCCC(CO)C1=O (stereo not shown) [EP009, 2-(Hydroxymethyl)-12-methylenecyclododecanone]
- Kinase Activity (% of Control) (VEGFR2): 100 % of Control
- Kinase Activity (% of Control) (TGFBR1): 100 % of Control
- effect on normal human naïve PBMC viability (normal human naïve PBMCs): no detectable loss of cell viability
- Kinase Activity (% of Control) (ABL1-phosphorylated): 100 % of Control
